Measurements from ChEMBL document CHEMBL3045349, “A comparative study on the interference of two herbicides in wheat and italian ryegrass and on their antioxidant activities and detoxification rates” (J Agric Food Chem, 2011).

What was measured:
Lolium multiflorum [1] = experiment: Increase in glutathione S-transferase activity in Lolium multiflorum (Italian ryegrass) compound administered at rate of 14 mf/flat measured 48 hr post treatment; assay type: functional
Lolium multiflorum [2] = experiment: Increase in antioxidant enzyme system in Lolium multiflorum (Italian ryegrass) shoots assessed as increase in ascorbate peroxidase activity compound administered at rate of 14 mf/flat measured 24 hr post treatment; assay type: functional
Lolium multiflorum [3] = experiment: Increase in MDA content in Lolium multiflorum (Italian ryegrass) shoots compound administered at rate of 14 mf/flat measured 48 hr post treatment; assay type: functional
Lolium multiflorum [4] = experiment: Effect on antioxidant enzyme system in Lolium multiflorum (Italian ryegrass) shoots assessed as catalase activity per mg protein compound administered at rate of 14 mf/flat measured 48 hr post treatment (reference value: 0.10 nmol/s per mg protein); assay type: functional
Shoot [5] = experiment: Drug level in Lolium multiflorum (Italian ryegrass) shoots compound administered at rate of 14 mf/flat measured 72 hr post treatment by HPLC; assay type: ADME
Triticum aestivum [6] = experiment: Increase in antioxidant enzyme system in Triticum aestivum (wheat) shoots assessed as increase in dehydroascorbate reductase activity compound administered at rate of 14 mf/flat measured 24 hr post treatment; assay type: functional
Triticum aestivum [7] = experiment: Effect on antioxidant enzyme system in Triticum aestivum (wheat) shoots assessed as dehydroascorbate reductase activity per mg protein compound administered at rate of 14 mf/flat measured 48 hr post treatment (reference value: 4.6 nmol/s per mg protein); assay type: functional
Triticum aestivum [8] = experiment: Effect on antioxidant enzyme system in Triticum aestivum (wheat) shoots assessed as ascorbate peroxidase activity per mg protein compound administered at rate of 14 mf/flat measured 72 hr post treatment (reference value: 17.2 nmol/s per mg protein); assay type: functional
Triticum aestivum [9] = experiment: Effect on antioxidant enzyme system in Triticum aestivum (wheat) shoots assessed as catalase activity per mg protein compound administered at rate of 14 mf/flat measured 24 hr post treatment (reference value: 0.1 nmol/s per mg protein); assay type: functional
Triticum aestivum [10] = experiment: Reduction in glutathione S-transferase activity in Triticum aestivum (wheat) shoots compound administered at rate of 14 mf/flat measured 24 hr post treatment; assay type: functional; set-up: scale not given: the % may be the effect or the level left
Lolium multiflorum [11] = experiment: Effect on photosynthetic activity in Lolium multiflorum (Italian ryegrass) shoots assessed as dark respiration rate measured by CO2 production compound administered at rate of 14 mf/flat measured 48 hr post treatment (reference value: -1.68 umol/m2/s); assay type: functional
Triticum aestivum [12] = experiment: Effect on antioxidant enzyme system in Triticum aestivum (wheat) shoots assessed as ascorbate peroxidase activity per mg protein compound administered at rate of 14 mf/flat measured 24 hr post treatment (reference value: 15.7 nmol/s per mg protein); assay type: functional
Shoot [13] = experiment: Drug level in Triticum aestivum (wheat) shoots compound administered at rate of 14 mf/flat measured 48 hr post treatment by HPLC; assay type: ADME
Lolium multiflorum [14] = experiment: Effect on photosynthetic activity in Lolium multiflorum (Italian ryegrass) shoots assessed as leaf net photosynthesis rate measured by CO2 production compound administered at rate of 14 mf/flat measured 48 hr post treatment (reference value: 4.89 umol/m2/s); assay type: functional
Lolium multiflorum [15] = experiment: Increase in MDA content in Lolium multiflorum (Italian ryegrass) shoots compound administered at rate of 14 mf/flat measured 72 hr post treatment; assay type: functional
Lolium multiflorum [16] = experiment: Effect on photosynthetic activity in Lolium multiflorum (Italian ryegrass) shoots assessed as dark respiration rate measured by CO2 production compound administered at rate of 14 mf/flat measured 72 hr post treatment (reference value: -1.32 umol/m2/s); assay type: functional
Triticum aestivum [17] = experiment: Effect on photosynthetic activity in Triticum aestivum (wheat) shoots assessed as leaf net photosynthesis rate measured by CO2 production compound administered at rate of 14 mf/flat measured 24 hr post treatment (reference value: 1.35 umol/m2/s); assay type: functional
Lolium multiflorum [18] = experiment: Drug level in Lolium multiflorum (Italian ryegrass) compound administered at rate of 14 mf/flat measured 24 hr post treatment by HPLC; assay type: ADME, organism-based; details: in vivo
Triticum aestivum [19] = experiment: Effect on antioxidant enzyme system in Triticum aestivum (wheat) shoots assessed as glutathione reductase activity per mg protein compound administered at rate of 14 mf/flat measured 48 hr post treatment (reference value: 1.1 nmol/s per mg protein); assay type: functional
Lolium multiflorum [20] = experiment: Effect on antioxidant enzyme system in Lolium multiflorum (Italian ryegrass) shoots assessed as catalase activity per mg protein compound administered at rate of 14 mf/flat measured 24 hr post treatment (reference value: 0.13 nmol/s per mg protein); assay type: functional
Lolium multiflorum [21] = experiment: Effect on antioxidant enzyme system in Lolium multiflorum (Italian ryegrass) shoots assessed as glutathione reductase activity per mg protein compound administered at rate of 14 mf/flat measured 24 hr post treatment (reference value: 1.1 nmol/s per mg protein); assay type: functional
Shoot [22] = experiment: Drug level in Triticum aestivum (wheat) shoots compound administered at rate of 14 mf/flat measured 24 hr post treatment by HPLC; assay type: ADME
Lolium multiflorum [23] = experiment: Effect on antioxidant enzyme system in Lolium multiflorum (Italian ryegrass) shoots assessed as glutathione reductase activity per mg protein compound administered at rate of 14 mf/flat measured 48 hr post treatment (reference value: 1.1 nmol/s per mg protein); assay type: functional
Lolium multiflorum [24] = experiment: Effect on antioxidant enzyme system in Lolium multiflorum (Italian ryegrass) shoots assessed as ascorbate peroxidase activity per mg protein compound administered at rate of 14 mf/flat measured 48 hr post treatment (reference value: 11.6 nmol/s per mg protein); assay type: functional
Triticum aestivum [25] = experiment: Effect on antioxidant enzyme system in Triticum aestivum (wheat) shoots assessed as dehydroascorbate reductase activity per mg protein compound administered at rate of 14 mf/flat measured 72 hr post treatment (reference value: 4.7 nmol/s per mg protein); assay type: functional
Lolium multiflorum [26] = experiment: Effect on antioxidant enzyme system in Lolium multiflorum (Italian ryegrass) shoots assessed as dehydroascorbate reductase activity per mg protein compound administered at rate of 14 mf/flat measured 48 hr post treatment (reference value: 3.7 nmol/s per mg protein); assay type: functional
Triticum aestivum [27] = experiment: Effect on photosynthetic activity in Triticum aestivum (wheat) shoots assessed as dark respiration rate measured by CO2 production compound administered at rate of 14 mf/flat measured 24 hr post treatment (reference value: -1.35 umol/m2/s); assay type: functional
Triticum aestivum [28] = experiment: Effect on MDA content in Triticum aestivum (wheat) shoots compound administered at rate of 14 mf/flat measured 24 hr post treatment (reference value: 0.054 uM/L); assay type: functional
Lolium multiflorum [29] = experiment: Increase in antioxidant enzyme system in Lolium multiflorum (Italian ryegrass) shoots assessed as increase in dehydroascorbate reductase activity compound administered at rate of 14 mf/flat measured 24 hr post treatment; assay type: functional
Lolium multiflorum [30] = experiment: Effect on antioxidant enzyme system in Lolium multiflorum (Italian ryegrass) shoots assessed as ascorbate peroxidase activity per mg protein compound administered at rate of 14 mf/flat measured 48 hr post treatment (reference value: 11.3 nmol/s per mg protein); assay type: functional
Lolium multiflorum [31] = experiment: Increase in antioxidant enzyme system in Lolium multiflorum (Italian ryegrass) shoots assessed as increase in ascorbate peroxidase activity compound administered at rate of 14 mf/flat measured 48 hr post treatment; assay type: functional
Lolium multiflorum [32] = experiment: Effect on MDA content in Lolium multiflorum (Italian ryegrass) shoots compound administered at rate of 14 mf/flat measured 72 hr post treatment (reference value: 0.67 uM/L); assay type: functional

| SMILES | Activity (Lolium multiflorum [1]) | Activity (Lolium multiflorum [2]) | Activity (Lolium multiflorum [3]) | Activity (Lolium multiflorum [4]) | Drug uptake (Shoot [5]) | Activity (Triticum aestivum [6]) | Activity (Triticum aestivum [7]) | Activity (Triticum aestivum [8]) | Activity (Triticum aestivum [9]) | Activity (Triticum aestivum [10]) | Activity (Lolium multiflorum [11]) | Activity (Triticum aestivum [12]) | Drug uptake (Shoot [13]) | Activity (Lolium multiflorum [14]) | Activity (Lolium multiflorum [15]) | Activity (Lolium multiflorum [16]) | Activity (Triticum aestivum [17]) | Drug uptake (Lolium multiflorum [18]) | Activity (Triticum aestivum [19]) | Activity (Lolium multiflorum [20]) | also measured |
| --- | --- | --- | --- | --- | --- | --- | --- | --- | --- | --- | --- | --- | --- | --- | --- | --- | --- | --- | --- | --- | --- |
| CCNc1nc(Cl)nc(NC(C)C)n1 [ATRAZINE] | 103% | 20% | 31% | 0.1 nmol/s/mg protein | 4.52 ppm | 20% | 5.3 nmol/s/mg protein | 18 nmol/s/mg protein | 0.1 nmol/s/mg protein | 37% | -1.56 micromol/m2/s | 22 nmol/s/mg protein | 5.67 ppm | -1.04 micromol/m2/s | 10% | -1.67 micromol/m2/s | -0.52 micromol/m2/s | 4.75 ppm | 1.1 nmol/s/mg protein | 0.13 nmol/s | Activity (Lolium multiflorum [21]): 1.4 nmol/s/mg protein; Drug uptake (Shoot [22]): 1.38 ppm; Activity (Lolium multiflorum [23]): 1 nmol/s/mg protein; Activity (Lolium multiflorum [24]): 12.2 nmol/s/mg protein; Activity (Triticum aestivum [25]): 5.7 nmol/s/mg protein; Activity (Lolium multiflorum [26]): 3.6 nmol/s/mg protein; Activity (Triticum aestivum [27]): -0.51 micromol/m2/s; Activity (Triticum aestivum [28]): 0.55 µM; Activity (Lolium multiflorum [29]): 15%; Activity (Lolium multiflorum [30]): 14.2 nmol/s/mg protein; Activity (Lolium multiflorum [31]): 26%; Activity (Lolium multiflorum [32]): 0.74 µM |
| O=[N+]([O-])c1ccc(Oc2ccc(C(F)(F)F)cc2[N+](=O)[O-])cc1 [FLUORODIFEN] | 371% | 11% | 14% | 0.11 nmol/s/mg protein | 0.46 ppm | 9% | 5.1 nmol/s/mg protein | 17.2 nmol/s/mg protein | 0.11 nmol/s/mg protein | 15% | -1.36 micromol/m2/s | 22.9 nmol/s/mg protein | 0.27 ppm | 4.42 micromol/m2/s | 10% | -1.06 micromol/m2/s | 1.15 micromol/m2/s | 0.72 ppm | 1.2 nmol/s/mg protein | 0.11 nmol/s | Activity (Lolium multiflorum [21]): 1.9 nmol/s/mg protein; Drug uptake (Shoot [22]): 1.64 ppm; Activity (Lolium multiflorum [23]): 1 nmol/s/mg protein; Activity (Lolium multiflorum [24]): 14 nmol/s/mg protein; Activity (Triticum aestivum [25]): 6.8 nmol/s/mg protein; Activity (Lolium multiflorum [26]): 3.7 nmol/s/mg protein; Activity (Triticum aestivum [27]): -0.82 micromol/m2/s; Activity (Triticum aestivum [28]): 0.05 µM; Activity (Lolium multiflorum [29]): 8%; Activity (Lolium multiflorum [30]): 15.3 nmol/s/mg protein; Activity (Lolium multiflorum [31]): 35%; Activity (Lolium multiflorum [32]): 0.74 µM |
